# Measured values published in patent US20240376411A1, “IMPROVED PERFUME COMPOSITIONS COMPRISING SULFUR-CONTAINING PRO-FRAGRANCE COMPOUNDS” (FIRMENICH SA, priority 2021, published 2024).
# Columns and labels:
# [1] = Identification of perfumery raw materials that promote hydrogen sulfide formation (1:1 w/w mix, storage, smell); format: physicochemical; conditions: raw materials named in Example 2 as not promoting; test conditions not repeated there
# Protocol: In other words, each of the perfumery raw materials being present in the perfume composition is capable of inducing a hydrogen sulfide smell when being mixed individually in a 1:1 (w/w) ratio with the sulfur-containing pro-fragrance compound and being stored for 2 weeks at 50° C. Preferably, a hydrogen sulfide smell is induced when being mixed in a 1:1 (w/w) ratio with 3-(dodecylthio)-1-(2,6,6-trimethylcyclohex-3-en-1-yl) butan-1-one (HaloScent® D) and stored for 2 weeks at 50° C. Preferably, the mixing is carried out in a 10 mL glass jar. The perfumery raw materials may be used as such or may be dissolved in a solvent, for example at a concentration of from 10% to 50%.
# Perfumery raw materials that promote the formation of hydrogen sulfide from 3-(dodecylthio)-1-(2,6,6-trimethylcyclohex-3-en-1-yl) butan-1-one (HaloScent® D) have been identified by mixing individual perfumery raw materials with 3-(dodecylthio)-1-(2,6,6-trimethylcyclohex-3-en-1-yl) butan-1-one (HaloScent® D) in a 1:1 (w/w) ratio in a 10 mL glass jar and storing said mixture for 2 weeks at 50° C. In case a hydrogen sulfide smell (similar to rotten egg odor) could be perceived after 2 weeks, it has been concluded that the perfumery raw material promotes the formation of hydrogen sulfide from 3-(dodecylthio)-1-(2,6,6-trimethylcyclohex-3-en-1-yl) butan-1-one (HaloScent® D).
# [2] = Sensorial evaluation (hydrogen sulfide smell) of perfume compositions upon 1 and 2 weeks of storage at 50° C.; format: physicochemical; conditions: for amount in the perfume composition that does not lead to an unpleasant hydrogen sulfide smell upon storage: conclusion from Tables 2 to 4, storage at 50° C.
# Description: (§1) To the first perfume composition, a perfumery raw material that promotes the formation of hydrogen sulfide ((−)-(2E)-2-ethyl-4-[(1R)-2,2,3-trimethyl-3-cyclopenten-1-yl]-2-buten-1-ol) has been added at various amounts (5 wt. %, 10 wt. %, 20 wt. %, 30 wt. %, and 40 wt. %, respectively, based on the total weight of the perfume composition). For each amount, it has been tested whether a hydrogen sulfide malodor could be perceived upon storage of the final perfume composition for 1 and 2 weeks, respectively, at 50° C.
# as §1, with “Likewise, to” for “To”, “second” for “first”, “((+/−)-3-methyl-5-phenyl-1-pentanol)” for “((−)-(2E)-2-ethyl-4-[(1R)-2,2,3-trimethyl-3-cyclopenten-1-yl]-2-buten-1-ol)”
# as §1, with “Likewise, to” for “To”, “third” for “first”, “((+/−)-3,7-dimethyl-6-octen-1-ol)” for “((−)-(2E)-2-ethyl-4-[(1R)-2,2,3-trimethyl-3-cyclopenten-1-yl]-2-buten-1-ol)”
# [3] = logP above 4 (octanol-water partition coefficient); conditions: Yes/No
# [4] = 5 wt. % of the raw material in the perfume composition, even after 2 weeks of storage
# [5] = 10 wt. % of the raw material in the perfume composition, even after 2 weeks of storage
# [6] = above 20 wt. % of the raw material, after 1 week of storage
Compound,promotion of formation of hydrogen sulfide from HaloScent® D [1],other results
C/C=C/c1ccc(O)c(OC)c1 [2-methoxy-4-[(1E)-1-propen-1-yl]phenol],do not promote the formation of hydrogen sulfide,–
"CC(C)CCCC(C)CCO (racemic) [(+/−)-3,7-dimethyl-1-octanol]",do not promote the formation of hydrogen sulfide,–
C=CCc1ccc(O)c(OC)c1 [2-methoxy-4-(2-propen-1-yl) phenol],do not promote the formation of hydrogen sulfide,–
allyl(⅔-methylbutoxy)acetate,do not promote the formation of hydrogen sulfide,–
"CC(=O)OC(C)(C)Cc1ccccc1 [1,1-dimethyl-2-phenylethyl acetate]",do not promote the formation of hydrogen sulfide,–
C=C(OC(C)=O)c1ccccc1 [1-phenylvinyl acetate],do not promote the formation of hydrogen sulfide,–
CC/C=C\CCOC(C)=O [(Z)-3-hexenyl acetate],do not promote the formation of hydrogen sulfide,–
"CC1C(C)(C)C2=C(C(=O)CCC2)C1(C)C (stereo not drawn) [1,1,2,3,3-pentamethyl-1,2,3,5,6,7-hexahydro-4H-inden-4-one]",do not promote the formation of hydrogen sulfide,–
CCCC(=O)OCC(C)CC (stereo not drawn) [2-methylbutyl butyrate],do not promote the formation of hydrogen sulfide,–
CCCC(=O)OCC [ethyl butanoate],do not promote the formation of hydrogen sulfide,–
CC(CCO)CCc1ccccc1 (racemic) [(+/−)-3-methyl-5-phenyl-1-pentanol],–,"unpleasant hydrogen sulfide smell [2, 4]: no unpleasant hydrogen sulfide smell could be perceived; unpleasant hydrogen sulfide smell [2, 5]: no unpleasant hydrogen sulfide smell could be perceived; unpleasant hydrogen sulfide smell [2, 6]: unpleasant hydrogen sulfide smell was perceived; amount in the perfume composition that does not lead to an unpleasant hydrogen sulfide smell upon storage [2]: up to 19 wt. %; logP > 4 [3]: No"
CCCC(=O)OCCC(C)C [3-methylbutyl butyrate],do not promote the formation of hydrogen sulfide,–
"O=C1CCCCCCCCCCCC(=O)OCCO1 [1,4-dioxacycloheptadecane-5,17-dione]",do not promote the formation of hydrogen sulfide,–
C=CCOC(=O)COC1CCCCC1 [allyl (cyclohexyloxy)acetate],do not promote the formation of hydrogen sulfide,–
CC/C=C\CCOC(=O)OC [(3Z)-hex-3-en-1-yl methyl carbonate],do not promote the formation of hydrogen sulfide,–
CC/C=C\CCO [(3Z)-3-hexen-1-ol],do not promote the formation of hydrogen sulfide,–
COC(=O)c1ccccc1O [methyl 2-hydroxybenzoate],do not promote the formation of hydrogen sulfide,–
"CC(=O)O[C@@H]1CC2CC[C@]1(C)C2(C)C [(1R,2R)-1,7,7-trimethyl-bicyclo[2.2.1]hept-2-yl acetate]",do not promote the formation of hydrogen sulfide,–
CC(=O)OC1CCC(C(C)(C)C)CC1 (stereo not drawn) [4-(2-methyl-2-propanyl)cyclohexyl acetate],do not promote the formation of hydrogen sulfide,–
CC(=O)c1ccccc1 [acetophenone],do not promote the formation of hydrogen sulfide,–
COc1ccc(C)cc1 [1-methoxy-4-methylbenzene],do not promote the formation of hydrogen sulfide,–
"CC(=O)OC1CC2CC1C1CC=CC21 (stereo not drawn) [tricyclo[5.2.1.02,6]dec-¾-en-8-yl acetate]",do not promote the formation of hydrogen sulfide,–
"CC(C)=CCCC(C)CCO (racemic) [(+/−)-3,7-dimethyl-6-octen-1-ol]",–,"unpleasant hydrogen sulfide smell [2, 4]: no unpleasant hydrogen sulfide smell could be perceived; unpleasant hydrogen sulfide smell [2, 5]: no unpleasant hydrogen sulfide smell could be perceived; unpleasant hydrogen sulfide smell [2, 6]: unpleasant hydrogen sulfide smell was perceived; amount in the perfume composition that does not lead to an unpleasant hydrogen sulfide smell upon storage [2]: up to 19 wt. %; logP > 4 [3]: No"
CCOC(=O)/C=C/c1ccccc1 [ethyl (E)-3-phenyl-2-propenoate],do not promote the formation of hydrogen sulfide,–
C=CCOC(=O)CCCCC [allyl hexanoate],do not promote the formation of hydrogen sulfide,–
"c1ccc(Oc2ccccc2)cc1 [1,1′-oxydibenzene]",do not promote the formation of hydrogen sulfide,–
"CCCC(=O)OC(C)(C)Cc1ccccc1 [1,1-dimethyl-2-phenylethyl butanoate]",do not promote the formation of hydrogen sulfide,–
"COC(Cc1ccccc1)OC [(2,2-dimethoxyethyl)benzene]",do not promote the formation of hydrogen sulfide,–
"CC/C(=C\C[C@H]1CC=C(C)C1(C)C)CO [(−)-(2E)-2-ethyl-4-[(1R)-2,2,3-trimethyl-3-cyclopenten-1-yl]-2-buten-1-ol]",–,"unpleasant hydrogen sulfide smell [2, 4]: no unpleasant hydrogen sulfide smell could be perceived; unpleasant hydrogen sulfide smell [2, 5]: no unpleasant hydrogen sulfide smell could be perceived; unpleasant hydrogen sulfide smell ([2]; at 20 wt. % (and above) of the raw material, only after 1 week of storage at 50° C.): unpleasant hydrogen sulfide smell was perceived; amount in the perfume composition that does not lead to an unpleasant hydrogen sulfide smell upon storage [2]: up to 19 wt. %; logP > 4 [3]: Yes"
CCCCCCOC(C)=O [hexyl acetate],do not promote the formation of hydrogen sulfide,–
